ChEMBL document CHEMBL1667844, “Synthesis, structure-activity relationships and preliminary antitumor evaluation of benzothiazole-2-thiol derivatives as novel apoptosis inducers” (Bioorg Med Chem Lett, 2011)
pIC50: −log10 of the molar value.

Tests used:
[1] = test system: HepG2; assay: Cytotoxicity against human HepG2 cells after 48 hrs by MTT assay; format: functional, cell-based; settings: HepG2, 48 h
[2] = test system: MCF7; assay: Cytotoxicity against human MCF7 cells after 48 hrs by MTT assay; format: functional, cell-based; settings: MCF7, 48 h
[3] = test system: SW-620; assay: Cytotoxicity against human SW620 cells after 48 hrs by MTT assay; format: functional, cell-based; settings: SW-620, 48 h
[4] = test system: BXPC-3; assay: Cytotoxicity against human BxPC3 cells after 48 hrs by MTT assay; format: functional, cell-based; settings: BXPC-3, 48 h
[5] = test system: MDA-MB-468; assay: Cytotoxicity against human MDA-MB-468 cells after 48 hrs by MTT assay; format: functional, cell-based; settings: MDA-MB-468, 48 h
[6] = test system: A-375; assay: Cytotoxicity against human A375 cells after 48 hrs by MTT assay; format: functional, cell-based; settings: A-375, 48 h
[7] = test system: HCT-116; assay: Cytotoxicity against human HCT116 cells after 48 hrs by MTT assay; format: functional, cell-based; settings: HCT-116, 48 h
[8] = test system: SW480; assay: Cytotoxicity against human SW480 cells after 48 hrs by MTT assay; format: functional, cell-based; settings: SW480, 48 h
[9] = test system: SK-BR-3; assay: Cytotoxicity against human SK-BR-3 cells after 48 hrs by MTT assay; format: functional, cell-based; settings: SK-BR-3, 48 h
[10] = test system: SK-OV-3; assay: Cytotoxicity against human SKOV3 cells after 48 hrs by MTT assay; format: functional, cell-based; settings: SK-OV-3, 48 h
[11] = test system: HeLa; assay: Cytotoxicity against human HeLa cells after 48 hrs by MTT assay; format: functional, cell-based
[12] = test system: A-431; assay: Cytotoxicity against human A431 cells after 48 hrs by MTT assay; format: functional, cell-based; settings: A-431, 48 h
[13] = test system: A549; assay: Cytotoxicity against human A549 cells after 48 hrs by MTT assay; format: functional, cell-based; settings: A549, 48 h
[14] = test system: PC-3; assay: Cytotoxicity against human PC3 cells after 48 hrs by MTT assay; format: functional, cell-based; settings: PC-3, 48 h
[15] = test system: HepG2; assay: Induction of apoptosis in human HepG2 cells assessed as DNA content at sub-G1 phase at 0.6 uM after 24 hrs using propidium iodide staining by flow cytometry (reference value: 4.3 %); format: functional
[16] = test system: HepG2; assay: Induction of apoptosis in human HepG2 cells assessed as morphological changes after 24 hrs using propidium iodide staining by fluorescence microscopic analysis; format: functional, cell-based
[17] = test system: HepG2; assay: Induction of apoptosis in human HepG2 cells assessed as DNA content at sub-G1 phase after 24 hrs using propidium iodide staining by flow cytometry; format: functional, cell-based
[18] = test system: HepG2; assay: Induction of apoptosis in human HepG2 cells assessed as DNA content at sub-G1 phase at 0.3 uM after 24 hrs using propidium iodide staining by flow cytometry (reference value: 4.3 %); format: functional
[19] = test system: HepG2; assay: Induction of apoptosis in human HepG2 cells assessed as DNA content at sub-G1 phase at 1.2 uM after 24 hrs using propidium iodide staining by flow cytometry (reference value: 4.3 %); format: functional

Structure (SMILES)	pIC50 [1]	pIC50 [2]	other results
CC(=O)Nc1ccc2nc(SCC(=O)NCc3ccccc3)sc2c1	5.04	4.75	–
O=C(CSc1nc2ccc(NC(=O)c3ccc([N+](=O)[O-])cc3)cc2s1)NCc1ccc(Cl)cc1	< 4.00	< 4.00	–
O=C(CSc1nc2ccc(NC(=O)CCl)cc2s1)NCc1ccccc1	5.96	5.38	pIC50 [3]: 5.92; pIC50 [4]: 5.18; pIC50 [5]: 5.39; pIC50 [6]: 5.74; pIC50 [7]: 5.89; pIC50 [8]: 5.28; pIC50 [9]: 5.06; pIC50 [10]: 5.32; pIC50 [11]: 5.31; pIC50 [12]: 5.36; pIC50 [13]: 5.40; pIC50 [14]: 5.21
CNC(=O)CSc1nc2ccc(NC(=O)c3ccccc3)cc2s1	4.58	4.46	–
CNC(=O)CSc1nc2ccc(NC(=O)CCl)cc2s1	5.72	5.30	–
O=C(CSc1nc2ccc(NC(=O)c3ccccc3)cc2s1)NCc1ccc(Cl)cc1	4.52	4.47	–
O=C(CSc1nc2ccc(NC(=O)c3ccc(Cl)cc3)cc2s1)NCc1ccccc1	4.60	4.59	–
CC(=O)Nc1ccc2nc(SCC(=O)NCc3ccc(Cl)cc3)sc2c1	5.17	4.99	–
CNC(=O)CSc1nc2ccc(NC(C)=O)cc2s1	< 4.00	< 4.00	–
O=C(CSc1nc2ccc(NC(=O)c3ccc(Cl)cc3)cc2s1)NCc1ccc(Cl)cc1	4.75	4.53	–
CNC(=O)CSc1nc2ccc(NC(=O)c3ccc([N+](=O)[O-])cc3)cc2s1	< 4.00	< 4.00	–
CNC(=O)CSc1nc2ccc(NC(=O)c3ccccc3OC)cc2s1	4.73	4.63	–
COc1ccc(CNC(=O)CSc2nc3ccc(NC(=O)CCl)cc3s2)cc1	5.70	5.29	–
COc1ccc(CNC(=O)CSc2nc3ccc(NC(=O)c4ccccc4)cc3s2)cc1	4.90	4.67	–
COc1ccc(CNC(=O)CSc2nc3ccc(NC(=O)c4ccc(Cl)cc4)cc3s2)cc1	5.13	4.72	–
CNC(=O)CSc1nc2ccc(NC(=O)c3ccc(Cl)cc3)cc2s1	4.82	4.53	–
COc1ccc(CNC(=O)CSc2nc3ccc(NC(C)=O)cc3s2)cc1	4.95	4.69	–
O=C(CSc1nc2ccc(NC(=O)c3ccccc3)cc2s1)NCc1ccccc1	4.47	4.45	–
COc1ccccc1C(=O)Nc1ccc2nc(SCC(=O)NCc3ccc(Cl)cc3)sc2c1	6.22	5.96	Activity [15]: 35.9%; pIC50 [3]: 5.38; pIC50 [4]: 5.36; pIC50 [5]: 5.64; pIC50 [6]: 5.66; Activity [16]: Dose-dependent effect; pIC50 [7]: 5.82; pIC50 [8]: 5.27; pIC50 [9]: 5.92; pIC50 [10]: 5.22; pIC50 [11]: 5.38; pIC50 [12]: 5.96; Activity [17]: Dose-dependent effect; Activity [18]: 19.2%; Activity [19]: 55.4%; pIC50 [13]: 5.70; pIC50 [14]: 5.34
O=C(CSc1nc2ccc(NC(=O)CCl)cc2s1)NCc1ccc(Cl)cc1	5.74	5.31	–
COc1ccccc1C(=O)Nc1ccc2nc(SCC(=O)NCc3ccccc3)sc2c1	5.10	4.76	–
COc1ccc(CNC(=O)CSc2nc3ccc(NC(=O)c4ccc([N+](=O)[O-])cc4)cc3s2)cc1	< 4.00	< 4.00	–
COc1ccc(CNC(=O)CSc2nc3ccc(NC(=O)c4ccccc4OC)cc3s2)cc1	5.68	5.03	–
O=C(CSc1nc2ccc(NC(=O)c3ccc([N+](=O)[O-])cc3)cc2s1)NCc1ccccc1	< 4.00	< 4.00	–
